# Counter-ions that a name gives are not always drawn.
# System: bacteria
# Assay: In vitro antibacterial activity (overall statement)
# Type: cell-based
# Details: ciprofloxacin resistant strains
smiles,measurement,value
"CN[C@@H]1CN(c2c(F)cn3c(=O)c(C(=O)O)cc(C4CC4)c3c2C)CC12CC2 [Example 1, 1-cyclopropyl-8-(7(S)-N-methylamino-5-azaspiro[2.4]heptyl)-7-fluoro-9-methyl-4-oxo-4H-guinolizine-3-carboxylic acid hydrochloride]",activity against ciprofloxacin resistant strains in words,highly active against ciprofloxacin resistant strains

# From patent publication US5977133A, “Pyridone antibiotic with improved safety profile” (priority 1998, dated 1999)
